Values of other authors, collected in patent US7671089B2 (XenoPort, Inc., priority 2004, dated 2010).

Experiments:
[1] = following oral administration
[2] = rats

Row | duration time [1] | levels of levodopa [1] | absorption following rectal administration [2] | Structure (SMILES)
1 | prolonged | low | – | CC(C)(C)C(=O)Oc1ccc(C[C@H](N)C(=O)O)cc1O [NB-355]
2 | – | – | poor | C[C@@](Cc1ccc(O)c(O)c1)(NN)C(=O)O [carbidopa]
